Assay results as given in ChEMBL document CHEMBL4043290, “Structure-based Design of Pyridone-Aminal eFT508 Targeting Dysregulated Translation by Selective Mitogen-activated Protein Kinase Interacting Kinases 1 and 2 (MNK1/2) Inhibition” (J Med Chem, 2018).

What was measured:
[1] = biological target: Leucine-rich repeat serine/threonine-protein kinase 2 (Homo sapiens) (UniProt Q5S007); experiment: Inhibition of LRRK2 (unknown origin) at 1 uM relative to control
[2] = Metabolic stability in mouse liver microsomes assessed as parent compound remaining at 1 uM after 30 mins by LC-ESI-TOF/MS method; assay type: ADME, microsome; settings: read-out: Stability
in vitro = settings: human, Caco-2
physchem = settings: octanol/water
[3] = biological target: TGF-beta receptor type-2 (Homo sapiens) (UniProt P37173); experiment: Inhibition of TGFBR2 (unknown origin) at 1 uM relative to control
[4] = biological target: Vascular endothelial growth factor receptor 2 (Homo sapiens) (UniProt P35968); experiment: Inhibition of KDR (unknown origin) at 1 uM relative to control
[5] = Metabolic stability in human liver microsomes assessed as parent compound remaining at 1 uM after 30 mins by LC-ESI-TOF/MS method; assay type: ADME, microsome; settings: read-out: Stability
[6] = biological target: Serine/threonine-protein kinase 17B (Homo sapiens) (UniProt O94768); experiment: Inhibition of DRAK2 (unknown origin) at 1 uM relative to control
Serine/threonine-protein kinase 17B (Homo sapiens), sequence (O94768 whole entry): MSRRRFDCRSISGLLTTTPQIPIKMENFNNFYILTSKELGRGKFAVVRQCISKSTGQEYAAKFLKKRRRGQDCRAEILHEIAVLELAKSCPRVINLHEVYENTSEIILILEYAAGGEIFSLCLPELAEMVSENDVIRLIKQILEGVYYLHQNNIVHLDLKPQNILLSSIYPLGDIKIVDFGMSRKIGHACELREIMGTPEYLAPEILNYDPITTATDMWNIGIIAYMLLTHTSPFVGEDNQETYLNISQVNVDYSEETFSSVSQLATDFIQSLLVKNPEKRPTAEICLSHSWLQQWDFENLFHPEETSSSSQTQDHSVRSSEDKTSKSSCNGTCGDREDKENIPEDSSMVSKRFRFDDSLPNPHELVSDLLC

[7] = Oral bioavailability in Beagle dog at 5 mg/kg by LC-ESI-TOF/MS or LC-ESI-MS/MS method; assay type: ADME, organism-based, Canis lupus familiaris; settings: in vivo
[8] = biological target: Dual specificity protein kinase CLK4 (Homo sapiens, UniProt Q9HAZ1); experiment: Inhibition of CLK4 (unknown origin) at 1 uM relative to control
Dual specificity protein kinase CLK4, sequence (Q9HAZ1 whole entry, looked up): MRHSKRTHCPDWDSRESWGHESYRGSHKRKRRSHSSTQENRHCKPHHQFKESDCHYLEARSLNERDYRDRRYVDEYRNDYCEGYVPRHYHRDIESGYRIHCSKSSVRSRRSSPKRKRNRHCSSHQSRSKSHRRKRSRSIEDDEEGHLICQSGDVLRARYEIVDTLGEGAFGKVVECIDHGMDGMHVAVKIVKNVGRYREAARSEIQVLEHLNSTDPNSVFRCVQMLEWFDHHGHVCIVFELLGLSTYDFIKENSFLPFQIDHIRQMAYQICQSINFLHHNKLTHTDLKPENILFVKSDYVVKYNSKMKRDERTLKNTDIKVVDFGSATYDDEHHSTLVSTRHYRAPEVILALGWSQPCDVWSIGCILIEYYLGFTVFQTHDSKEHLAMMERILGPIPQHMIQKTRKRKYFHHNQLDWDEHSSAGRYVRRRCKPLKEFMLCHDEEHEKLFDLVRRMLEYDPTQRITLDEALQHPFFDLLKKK

[9] = Oral bioavailability in cynomolgus monkey at 5 mg/kg by LC-ESI-TOF/MS or LC-ESI-MS/MS method; assay type: ADME, organism-based, Macaca fascicularis; settings: in vivo
[10] = biological target: Proto-oncogene tyrosine-protein kinase receptor Ret (Homo sapiens) (UniProt P07949); experiment: Inhibition of RET (unknown origin) at 1 uM relative to control
Proto-oncogene tyrosine-protein kinase receptor Ret (Homo sapiens), sequence (P07949 whole entry): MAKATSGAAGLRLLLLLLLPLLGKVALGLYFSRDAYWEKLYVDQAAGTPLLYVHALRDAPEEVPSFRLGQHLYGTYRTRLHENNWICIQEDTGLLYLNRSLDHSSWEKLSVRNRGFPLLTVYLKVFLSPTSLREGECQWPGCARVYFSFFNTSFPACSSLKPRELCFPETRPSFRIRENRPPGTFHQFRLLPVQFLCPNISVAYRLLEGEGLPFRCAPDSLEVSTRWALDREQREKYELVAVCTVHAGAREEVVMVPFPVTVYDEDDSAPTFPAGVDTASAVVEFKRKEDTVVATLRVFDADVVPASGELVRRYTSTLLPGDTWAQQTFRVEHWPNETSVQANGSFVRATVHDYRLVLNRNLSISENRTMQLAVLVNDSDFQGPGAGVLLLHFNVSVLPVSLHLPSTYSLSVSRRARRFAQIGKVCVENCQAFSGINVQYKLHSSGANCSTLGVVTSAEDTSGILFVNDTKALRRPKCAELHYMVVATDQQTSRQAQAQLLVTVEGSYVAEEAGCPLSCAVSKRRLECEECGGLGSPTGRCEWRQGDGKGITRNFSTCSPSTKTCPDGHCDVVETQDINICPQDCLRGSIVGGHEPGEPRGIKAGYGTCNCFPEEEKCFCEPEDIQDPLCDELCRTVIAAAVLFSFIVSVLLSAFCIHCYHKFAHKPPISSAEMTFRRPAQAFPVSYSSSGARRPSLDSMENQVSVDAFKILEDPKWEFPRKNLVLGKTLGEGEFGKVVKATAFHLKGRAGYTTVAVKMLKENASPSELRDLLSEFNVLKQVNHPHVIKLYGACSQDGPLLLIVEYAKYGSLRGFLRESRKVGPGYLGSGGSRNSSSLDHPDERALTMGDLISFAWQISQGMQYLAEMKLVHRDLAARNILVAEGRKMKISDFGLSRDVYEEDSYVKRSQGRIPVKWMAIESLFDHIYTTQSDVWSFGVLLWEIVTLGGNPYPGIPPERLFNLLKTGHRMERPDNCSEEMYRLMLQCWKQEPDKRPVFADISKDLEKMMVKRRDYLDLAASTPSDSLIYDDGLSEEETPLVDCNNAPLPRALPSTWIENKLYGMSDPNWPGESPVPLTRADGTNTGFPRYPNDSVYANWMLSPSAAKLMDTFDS

[11] = biological target: Receptor-interacting serine/threonine-protein kinase 2 (Homo sapiens) (UniProt O43353); experiment: Inhibition of RIPK2 (unknown origin) at 1 uM relative to control
[12] = Metabolic stability in rat liver microsomes assessed as parent compound remaining at 1 uM after 30 mins by LC-ESI-TOF/MS method; assay type: ADME, microsome; settings: read-out: Stability
[13] = Oral bioavailability in Balb/c mouse at 10 mg/kg by LC-ESI-TOF/MS or LC-ESI-MS/MS method; assay type: ADME, organism-based; settings: in vivo
[14] = Oral bioavailability in Sprague-Dawley rat at 10 mg/kg by LC-ESI-TOF/MS or LC-ESI-MS/MS method; assay type: ADME, organism-based; settings: in vivo
[15] = biological target: T1, Serine/threonine-protein kinase 17A (Homo sapiens) (UniProt Q9UEE5); experiment: Inhibition of DRAK1 (unknown origin) at 1 uM relative to control
T1 sequence (whole entry): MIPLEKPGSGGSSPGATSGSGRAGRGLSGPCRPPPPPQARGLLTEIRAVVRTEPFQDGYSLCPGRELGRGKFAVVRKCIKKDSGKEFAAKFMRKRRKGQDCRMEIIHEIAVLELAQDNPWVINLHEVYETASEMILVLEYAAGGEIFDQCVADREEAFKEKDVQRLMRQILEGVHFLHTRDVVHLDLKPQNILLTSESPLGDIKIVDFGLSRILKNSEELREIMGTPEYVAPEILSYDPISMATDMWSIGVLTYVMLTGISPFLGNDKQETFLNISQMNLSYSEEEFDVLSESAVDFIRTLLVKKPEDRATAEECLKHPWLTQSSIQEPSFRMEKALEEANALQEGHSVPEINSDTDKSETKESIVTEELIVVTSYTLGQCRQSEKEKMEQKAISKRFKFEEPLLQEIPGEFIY

[16] = biological target: T2, Serine/threonine-protein kinase BRSK1 (Homo sapiens) (UniProt Q8TDC3); experiment: Inhibition of BRSK1 (unknown origin) at 1 uM relative to control
T2 sequence (whole entry): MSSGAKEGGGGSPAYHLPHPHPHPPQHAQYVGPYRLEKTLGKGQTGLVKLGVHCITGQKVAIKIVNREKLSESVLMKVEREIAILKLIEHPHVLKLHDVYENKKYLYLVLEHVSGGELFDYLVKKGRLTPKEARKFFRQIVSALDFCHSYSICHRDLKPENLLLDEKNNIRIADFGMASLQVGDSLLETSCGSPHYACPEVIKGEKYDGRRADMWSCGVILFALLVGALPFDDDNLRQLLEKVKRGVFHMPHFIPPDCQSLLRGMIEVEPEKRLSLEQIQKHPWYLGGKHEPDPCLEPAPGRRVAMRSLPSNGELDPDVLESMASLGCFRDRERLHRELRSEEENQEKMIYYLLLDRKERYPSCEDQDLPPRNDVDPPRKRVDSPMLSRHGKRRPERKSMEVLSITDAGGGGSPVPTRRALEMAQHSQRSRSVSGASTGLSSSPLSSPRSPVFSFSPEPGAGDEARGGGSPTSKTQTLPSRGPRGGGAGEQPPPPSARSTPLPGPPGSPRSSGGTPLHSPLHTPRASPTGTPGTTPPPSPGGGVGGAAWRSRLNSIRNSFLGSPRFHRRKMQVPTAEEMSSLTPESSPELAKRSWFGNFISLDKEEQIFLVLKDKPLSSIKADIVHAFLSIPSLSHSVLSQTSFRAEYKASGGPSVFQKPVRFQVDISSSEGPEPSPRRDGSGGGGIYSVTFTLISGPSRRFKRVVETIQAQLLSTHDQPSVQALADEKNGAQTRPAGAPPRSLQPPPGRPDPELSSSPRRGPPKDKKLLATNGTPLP

[17] = biological target: Dual specificity tyrosine-phosphorylation-regulated kinase 3 (Homo sapiens) (UniProt O43781); experiment: Inhibition of DYRK3 (unknown origin) at 1 uM relative to control
Dual specificity tyrosine-phosphorylation-regulated kinase 3 (Homo sapiens), sequence (O43781 whole entry): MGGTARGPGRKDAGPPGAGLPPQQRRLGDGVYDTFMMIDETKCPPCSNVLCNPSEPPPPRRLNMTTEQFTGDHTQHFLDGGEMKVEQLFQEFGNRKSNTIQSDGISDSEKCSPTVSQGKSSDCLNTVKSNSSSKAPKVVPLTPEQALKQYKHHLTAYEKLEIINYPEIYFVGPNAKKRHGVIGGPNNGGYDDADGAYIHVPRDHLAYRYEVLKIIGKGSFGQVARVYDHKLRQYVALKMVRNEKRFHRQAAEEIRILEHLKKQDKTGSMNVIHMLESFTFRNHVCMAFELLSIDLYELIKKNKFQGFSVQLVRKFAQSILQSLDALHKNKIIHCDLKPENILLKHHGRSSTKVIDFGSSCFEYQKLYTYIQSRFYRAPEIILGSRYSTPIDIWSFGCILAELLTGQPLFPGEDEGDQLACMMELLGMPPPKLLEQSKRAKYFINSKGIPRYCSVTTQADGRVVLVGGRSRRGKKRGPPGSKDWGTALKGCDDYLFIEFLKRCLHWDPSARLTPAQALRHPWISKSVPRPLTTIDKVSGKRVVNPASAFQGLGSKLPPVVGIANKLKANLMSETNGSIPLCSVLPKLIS

[18] = biological target: MAP kinase-activated protein kinase 3 (Homo sapiens) (UniProt Q16644); experiment: Inhibition of MAPKAPK3 (unknown origin) at 1 uM relative to control
[19] = biological target: Receptor-type tyrosine-protein kinase FLT3 (Homo sapiens) (UniProt P36888); experiment: Inhibition of FLT3 (unknown origin) at 1 uM relative to control
[20] = Oral bioavailability in Beagle dog at 3 mg/kg by LC-ESI-TOF/MS or LC-ESI-MS/MS method; assay type: ADME, organism-based, Canis lupus familiaris; settings: in vivo
[21] = biological target: Platelet-derived growth factor receptor alpha (Homo sapiens) (UniProt P16234); experiment: Inhibition of PDGFRA (unknown origin) at 1 uM relative to control
[22] = biological target: Tyrosine-protein kinase Fgr (Homo sapiens) (UniProt P09769); experiment: Inhibition of FGR (unknown origin) at 1 uM relative to control
[23] = biological target: MAP kinase-interacting serine/threonine-protein kinase 1 (Homo sapiens, UniProt Q9BUB5)
[24] = biological target: Ribosomal protein S6 kinase alpha-6 (Homo sapiens) (UniProt Q9UK32); experiment: Inhibition of RSK4 (unknown origin) at 1 uM relative to control
[25] = Oral bioavailability in cynomolgus monkey at 3 mg/kg by LC-ESI-TOF/MS or LC-ESI-MS/MS method; assay type: ADME, organism-based, Macaca fascicularis; settings: in vivo
[26] = biological target: Dual specificity tyrosine-phosphorylation-regulated kinase 2 (Homo sapiens) (UniProt Q92630); experiment: Inhibition of DYRK2 (unknown origin) at 1 uM relative to control
[27] = biological target: Vascular endothelial growth factor receptor 3 (Homo sapiens) (UniProt P35916); experiment: Inhibition of FLT4 (unknown origin) at 1 uM relative to control

Leucine-rich repeat serine/threonine-protein kinase 2 (Homo sapiens), sequence (Q5S007 whole entry): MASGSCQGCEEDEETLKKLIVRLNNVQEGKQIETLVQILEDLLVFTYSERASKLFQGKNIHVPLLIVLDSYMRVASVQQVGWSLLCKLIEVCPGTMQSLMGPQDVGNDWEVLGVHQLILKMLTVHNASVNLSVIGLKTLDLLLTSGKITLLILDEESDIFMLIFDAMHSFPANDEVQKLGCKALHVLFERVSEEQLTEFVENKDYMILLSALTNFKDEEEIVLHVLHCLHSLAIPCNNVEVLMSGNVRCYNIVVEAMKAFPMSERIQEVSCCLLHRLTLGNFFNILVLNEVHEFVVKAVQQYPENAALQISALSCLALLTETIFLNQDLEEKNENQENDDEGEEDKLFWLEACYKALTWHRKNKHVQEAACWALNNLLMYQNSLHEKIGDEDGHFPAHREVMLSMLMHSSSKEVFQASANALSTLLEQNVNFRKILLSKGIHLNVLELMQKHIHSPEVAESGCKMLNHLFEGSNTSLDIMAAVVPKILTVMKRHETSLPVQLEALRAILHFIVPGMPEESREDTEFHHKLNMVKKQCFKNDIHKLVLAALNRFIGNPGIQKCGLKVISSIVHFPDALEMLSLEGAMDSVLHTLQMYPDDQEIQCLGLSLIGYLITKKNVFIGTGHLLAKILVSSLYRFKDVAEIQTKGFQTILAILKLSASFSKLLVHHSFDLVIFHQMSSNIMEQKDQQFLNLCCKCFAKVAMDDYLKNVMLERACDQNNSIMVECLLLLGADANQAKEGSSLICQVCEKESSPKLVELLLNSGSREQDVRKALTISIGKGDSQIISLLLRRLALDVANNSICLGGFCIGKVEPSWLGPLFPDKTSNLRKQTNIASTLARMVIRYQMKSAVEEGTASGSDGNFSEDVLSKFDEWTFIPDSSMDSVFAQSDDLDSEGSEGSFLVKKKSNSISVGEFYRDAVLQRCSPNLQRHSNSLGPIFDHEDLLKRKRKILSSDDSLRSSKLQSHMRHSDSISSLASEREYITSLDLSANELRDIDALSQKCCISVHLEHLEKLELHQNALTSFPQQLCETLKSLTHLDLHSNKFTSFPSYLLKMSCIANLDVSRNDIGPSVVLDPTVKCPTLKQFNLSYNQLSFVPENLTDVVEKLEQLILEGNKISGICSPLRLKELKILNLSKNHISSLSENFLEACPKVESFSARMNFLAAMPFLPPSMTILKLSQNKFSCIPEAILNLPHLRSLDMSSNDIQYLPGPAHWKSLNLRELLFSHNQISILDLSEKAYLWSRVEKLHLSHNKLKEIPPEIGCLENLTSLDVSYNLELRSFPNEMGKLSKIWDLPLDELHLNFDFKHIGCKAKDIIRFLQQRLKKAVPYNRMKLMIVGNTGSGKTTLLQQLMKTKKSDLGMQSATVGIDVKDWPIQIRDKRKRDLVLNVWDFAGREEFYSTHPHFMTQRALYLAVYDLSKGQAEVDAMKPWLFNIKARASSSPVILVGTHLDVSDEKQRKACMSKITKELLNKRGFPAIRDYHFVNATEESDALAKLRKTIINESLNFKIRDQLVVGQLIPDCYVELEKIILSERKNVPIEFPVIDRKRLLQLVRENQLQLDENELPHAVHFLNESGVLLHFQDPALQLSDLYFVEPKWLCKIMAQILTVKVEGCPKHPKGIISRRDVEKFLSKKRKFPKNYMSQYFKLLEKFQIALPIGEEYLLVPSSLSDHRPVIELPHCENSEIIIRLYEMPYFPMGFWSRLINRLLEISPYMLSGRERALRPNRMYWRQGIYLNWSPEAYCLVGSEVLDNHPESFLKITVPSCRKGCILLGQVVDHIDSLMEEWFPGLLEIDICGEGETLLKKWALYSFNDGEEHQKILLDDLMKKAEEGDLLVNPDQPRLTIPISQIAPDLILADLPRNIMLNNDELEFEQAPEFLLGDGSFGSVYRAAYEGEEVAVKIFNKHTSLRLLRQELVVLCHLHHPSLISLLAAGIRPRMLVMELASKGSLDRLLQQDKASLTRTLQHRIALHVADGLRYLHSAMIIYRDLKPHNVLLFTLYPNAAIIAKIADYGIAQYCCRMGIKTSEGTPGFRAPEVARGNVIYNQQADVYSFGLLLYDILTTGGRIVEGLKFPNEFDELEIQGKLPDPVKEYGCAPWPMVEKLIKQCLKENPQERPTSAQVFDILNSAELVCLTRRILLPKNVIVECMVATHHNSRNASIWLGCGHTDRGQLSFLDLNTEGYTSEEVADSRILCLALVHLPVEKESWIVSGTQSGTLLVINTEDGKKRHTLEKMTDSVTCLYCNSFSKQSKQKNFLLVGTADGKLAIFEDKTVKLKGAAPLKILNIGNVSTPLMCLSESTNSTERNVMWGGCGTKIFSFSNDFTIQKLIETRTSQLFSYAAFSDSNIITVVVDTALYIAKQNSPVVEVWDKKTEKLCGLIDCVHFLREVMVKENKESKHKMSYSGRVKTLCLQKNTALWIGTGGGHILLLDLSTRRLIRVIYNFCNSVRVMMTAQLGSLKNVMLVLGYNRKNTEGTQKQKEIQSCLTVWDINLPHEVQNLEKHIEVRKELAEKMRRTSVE

| inhibition [1] [%] | remaining at 0.5 h, 1 µM [2] [%] | Papp A→B at 2 h, 5 µM (in vitro) [×10⁻⁶ cm/s] | logP (physchem) | inhibition [3] [%] | inhibition [4] [%] | remaining at 0.5 h, 1 µM [5] [%] | inhibition [6] [%] | inhibition [8] [%] | inhibition [10] [%] | remaining at 0.5 h, 1 µM [12] [%] | bioavailability [13] [%] | bioavailability [14] [%] | inhibition [15] [%] | inhibition [16] [%] | inhibition [17] [%] | further results | SMILES |
| --- | --- | --- | --- | --- | --- | --- | --- | --- | --- | --- | --- | --- | --- | --- | --- | --- | --- |
| 59 | 73 | 4.2 | 3.2 | 57 | 71 | 89 | 82 | 75 | 55 | 69 | 58 | 28 | 96 | 55 | 56 | bioavailability [7]: > 100%; bioavailability [9]: 50%; inhibition [11]: 59% | Nc1cc(Nc2cc(Cl)c3n(c2=O)C2(CCCCC2)NC3=O)ncn1 |
| 52 | 71 | 1.2 | 2.4 | 74 | 96 | 85 | 82 | 75 | 87 | 73 | 80 | 69 | 95 | 58 | 67 | inhibition [18]: 54%; inhibition [19]: 55%; bioavailability [20]: > 100%; inhibition [21]: 55%; inhibition [22]: 60%; IC50 [23]: 0.88 nM; inhibition [24]: 58%; bioavailability [25]: 51%; inhibition [26]: 81%; inhibition [27]: 89% | Nc1cc(Nc2cc(Cl)c3n(c2=O)C2(CCCC2)NC3=O)ncn1 |
